How the values were obtained:
[1] = system: Human immunodeficiency virus 1; experiment: Antiviral activity against HIV-1 IIIB infected in human C8166 cells assessed as inhibition of reverse transcriptase mediated cytopathic effect incubated for 3 days by MTT assay; type: functional, organism-based; conditions: Human immunodeficiency virus 1, IIIB, C8166, 72 h
[2] = Cytotoxicity against human C8166 cells assessed as reduction in cell viability incubated for 3 days by MTT assay; type: toxicity, cell-based; conditions: time 3 day
[3] = Therapeutic index, ratio of CC50 for cytotoxicity against human C8166 cells to EC50 for antiviral activity against HIV-1 IIIB infected in human C8166 cells; type: toxicity, cell-based; conditions: read-out: Ratio CC50/EC50

`CC(=O)N1CCc2cc3c(c4c2[C@H]1Cc1ccccc1-4)OCO3` gave an IC50 [1] of over 40 µM.

With `OCCc1cc2c(c3c1ccc1ccccc13)OCO2` the CC50 at 72 h [2] was 838 µM, the selectivity ratio [3] was 6690 and the EC50 [1] was 0.125 µM.

`O[C@H]1Cc2cc3c(c4c2c1cc1ccccc14)OCO3` showed a CC50 at 72 h [2] of 3090 µM, a selectivity ratio [3] of 148000 and an EC50 [1] of 0.0209 µM.

In the case of `c1ccc2c(c1)C[C@H]1NCCc3cc4c(c-2c31)OCO4` [ANONAINE], the IC50 [1] is reported as over 40 µM.

Work on `Cc1cn([C@H]2C[C@H](N=[N+]=[N-])[C@@H](CO)O2)c(=O)[nH]c1=O` [ZIDOVUDINE] yielded a CC50 at 72 h [2] of 3990 µM, a selectivity ratio [3] of 167000 and an EC50 [1] of 0.0239 µM.

From ChEMBL document CHEMBL5230158, “Artapilosines A and B, Unusual Phenanthrene Derivatives Related to Aporphine Alkaloids from Artabotrys pilosus” (J Nat Prod, 2021)
